Measured values reported in patent US6737383B1, “Herbicidal oxadiazolidines” (priority 1999, dated 2004).

Legend:
corn = assay: Test B pre/postemergence corn; format: in vivo, Zea mays; conditions: for Corn plant response rating: scale of 0 to 10 where 0 is no effect and 10 is complete control
Procedure, shortened: (§1)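 Test chemicals in a non-phytotoxic solvent mixture with surfactant were sprayed preemergence onto planted seeds and postemergence onto plants 2 to 18 cm tall (1- to 4-leaf stage). After twelve to sixteen days in a greenhouse, injury was visually rated against untreated controls from 0 (no effect) to 10 (complete control).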

cocklebur = assay: Test B pre/postemergence cocklebur; format: in vivo, Xanthium strumarium; conditions: for Cocklebur plant response rating: scale of 0 to 10 where 0 is no effect and 10 is complete control
Procedure, shortened: as §1

giant foxtail = assay: Test B pre/postemergence giant foxtail; format: in vivo, Setaria faberii; conditions: for Giant foxtail plant response rating: scale of 0 to 10 where 0 is no effect and 10 is complete control
Procedure, shortened: as §1

surinam grass = assay: Test B pre/postemergence surinam grass; format: in vivo, Brachiaria decumbens
Procedure, shortened: as §1

rice = assay: Test B flood test rice; format: in vivo, Oryza sativa
Procedure, shortened: (§2)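 Flood test on plants grown to the 2-leaf stage; treated plants kept in greenhouse twelve to sixteen days, then visually rated against controls on a 0 (no effect) to 10 (complete control) scale.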

wheat = assay: Test B pre/postemergence wheat; format: in vivo, Triticum aestivum; conditions: for Wheat plant response rating: scale of 0 to 10 where 0 is no effect and 10 is complete control
Procedure, shortened: as §1

crabgrass = assay: Test B pre/postemergence crabgrass; format: in vivo, Digitaria sanguinalis; conditions: for Crabgrass plant response rating: scale of 0 to 10 where 0 is no effect and 10 is complete control
Procedure, shortened: as §1

morningglory = assay: Test B pre/postemergence morningglory; format: in vivo, Ipomoea hederacea; conditions: for Morningglory plant response rating: scale of 0 to 10 where 0 is no effect and 10 is complete control
Procedure, shortened: as §1

blackgrass = assay: Test B pre/postemergence blackgrass; format: in vivo, Alopecurus myosuroides
Procedure, shortened: as §1

bamyardgrass = assay: Test B flood test barnyardgrass; format: in vivo, Echinochloa crus-galli
Procedure, shortened: as §2

velvetleaf = assay: Test B pre/postemergence velvetleaf; format: in vivo, Abutilon theophrasti; conditions: for Velvetleaf plant response rating: scale of 0 to 10 where 0 is no effect and 10 is complete control
Procedure, shortened: as §1

purple nutsedge = assay: Test B pre/postemergence purple nutsedge; format: in vivo, Cyperus rotundus; conditions: for Nutsedge plant response rating: scale of 0 to 10 where 0 is no effect and 10 is complete control
Procedure, shortened: as §1

duck salad = assay: Test B flood test duck salad; format: in vivo, Heteranthera limosa
Procedure, shortened: as §2

smallflower flatsedge = assay: Test B flood test smallflower flatsedge; format: in vivo, Cyperus difformis
Procedure, shortened: as §2

wild oat = assay: Test B pre/postemergence wild oat; format: in vivo, Avena fatua; conditions: for Wild oats plant response rating: scale of 0 to 10 where 0 is no effect and 10 is complete control
Procedure, shortened: as §1

bedstraw = assay: Test B pre/postemergence bedstraw; format: in vivo, Galium aparine
Procedure, shortened: as §1

[1] = Postemergence, Rate 125 g/ha, scale 0 to 10, 0 is no effect, 10 is complete control
[2] = Preemergence, Rate 62 g/ha, scale 0 to 10 (0 no effect, 10 complete control)
[3] = Rate 500 g/ha, Postemergence, scale 0 to 10, 0 no effect, 10 complete control
[4] = Preemergence, Rate 250 g/ha, scale of 0 to 10 where 0 is no effect and 10 is complete control
[5] = Preemergence, Rate 500 g/ha, scale of 0 to 10 where 0 is no effect and 10 is complete control
[6] = Rate 62 g/ha, Postemergence, scale of 0 to 10 where 0 is no effect and 10 is complete control
[7] = Rate 250 g/ha, Postemergence, scale of 0 to 10 where 0 is no effect and 10 is complete control
[8] = Postemergence (flood test), Rate 125 g/ha, scale 0 to 10, 0 is no effect, 10 is complete control
[9] = Rate 62 g/ha, Postemergence (flood test species), scale of 0 to 10 where 0 is no effect and 10 is complete control
[10] = Rate 500 g/ha, listed under Postemergence (flood test species), scale 0 to 10, 0 no effect, 10 complete control

## COCC(C)n1c(=O)on(C(=O)N(c2ccc(F)cc2F)C(C)C)c1=O (centres unmarked) [Compound 352]
corn; [1]
  Plant response rating, Corn: 0
corn; [2]
  Plant response rating, Corn: 0
corn; Preemergence, Rate 125 g/ha
  Corn plant response rating (0 to 10 scale): 5
corn; Preemergence, Rate 250 g/ha
  Corn plant response rating: 6
corn; Preemergence, Rate 500 g/ha
  Corn plant response rating: 9
corn; Rate 62 g/ha, Postemergence
  Corn plant response rating: 0
corn; [3]
  Plant response rating, Corn: 6
cocklebur; [1]
  Plant response rating, Cocklebur: 0
cocklebur; [2]
  Plant response rating, Cocklebur: 0
cocklebur; Preemergence, Rate 125 g/ha
  Cocklebur plant response rating (0 to 10 scale): 0
cocklebur; Preemergence, Rate 250 g/ha
  Cocklebur plant response rating: 0
cocklebur; Preemergence, Rate 500 g/ha
  Cocklebur plant response rating: 0
cocklebur; Rate 62 g/ha, Postemergence
  Cocklebur plant response rating: 0
cocklebur; [3]
  Plant response rating, Cocklebur: 0
Giant foxtail; [1]
  Plant response rating, Giant foxtail: 2
Giant foxtail; [2]
  Plant response rating, Giant foxtail: 10
Giant foxtail; Preemergence, Rate 125 g/ha
  Giant foxtail plant response rating (0 to 10 scale): 10
Giant foxtail; Preemergence, Rate 250 g/ha
  Giant foxtail plant response rating: 10
Giant foxtail; Preemergence, Rate 500 g/ha
  Giant foxtail plant response rating: 10
Giant foxtail; Rate 62 g/ha, Postemergence
  Giant foxtail plant response rating: 2
Giant foxtail; [3]
  Plant response rating, Giant foxtail: 9
Surinam grass; [1]
  Plant response rating, B. signalgrass: 2
Surinam grass; [2]
  Plant response rating, B. signalgrass: 2
Surinam grass; Preemergence, Rate 125 g/ha
  B. signalgrass plant response rating (0 to 10 scale, 0 is no effect, 10 is complete control): 6
Surinam grass; [4]
  B. signalgrass plant response rating: 7
Surinam grass; [5]
  B. signalgrass plant response rating: 7
Surinam grass; [6]
  B. signalgrass plant response rating: 0
Surinam grass; [7]
  Plant response rating, B. signalgrass: 7
Surinam grass; [3]
  Plant response rating, B. signalgrass: 7
rice; [8]
  Plant response rating, Rice: 3
rice; [9]
  Rice plant response rating: 0
rice; [10]
  Plant response rating, Rice: 3
wheat; [1]
  Plant response rating, Wheat: 3
wheat; [2]
  Plant response rating, Wheat: 0
wheat; Preemergence, Rate 125 g/ha
  Wheat plant response rating (0 to 10 scale): 0
wheat; Preemergence, Rate 250 g/ha
  Wheat plant response rating: 2
wheat; Preemergence, Rate 500 g/ha
  Wheat plant response rating: 6
wheat; Rate 62 g/ha, Postemergence
  Wheat plant response rating: 0
wheat; [3]
  Plant response rating, Wheat: 7
crabgrass; [1]
  Plant response rating, Crabgrass: 3
crabgrass; [2]
  Plant response rating, Crabgrass: 9
crabgrass; Preemergence, Rate 125 g/ha
  Crabgrass plant response rating (0 to 10 scale): 10
crabgrass; Preemergence, Rate 250 g/ha
  Crabgrass plant response rating: 10
crabgrass; Preemergence, Rate 500 g/ha
  Crabgrass plant response rating: 10
crabgrass; Rate 62 g/ha, Postemergence
  Crabgrass plant response rating: 1
crabgrass; [3]
  Plant response rating, Crabgrass: 4
morningglory; [1]
  Plant response rating, Morningglory: 6
morningglory; [2]
  Plant response rating, Morningglory: 0
morningglory; Preemergence, Rate 125 g/ha
  Morningglory plant response rating (0 to 10 scale): 0
morningglory; Preemergence, Rate 250 g/ha
  Morningglory plant response rating: 0
morningglory; Preemergence, Rate 500 g/ha
  Morningglory plant response rating: 2
morningglory; Rate 62 g/ha, Postemergence
  Morningglory plant response rating: 0
morningglory; [3]
  Plant response rating, Morningglory: 8
blackgrass; [1]
  Plant response rating, Blackgrass: 8
blackgrass; [2]
  Plant response rating, Blackgrass: 9
blackgrass; Preemergence, Rate 125 g/ha
  Blackgrass plant response rating (0 to 10 scale): 10
blackgrass; [4]
  Blackgrass plant response rating: 10
blackgrass; [5]
  Blackgrass plant response rating: 10
blackgrass; [6]
  Blackgrass plant response rating: 8
blackgrass; [7]
  Plant response rating, Blackgrass: 8
blackgrass; [3]
  Plant response rating, Blackgrass: 8
bamyardgrass; [8]
  Plant response rating, Barnyardgrass: 3
bamyardgrass; [9]
  Barnyardgrass plant response rating: 0
bamyardgrass; Rate 250 g/ha, Postemergence (flood test species), scale of 0 to 10 where 0 is no effect and 10 is complete control
  Plant response rating, Barnyardgrass: 3
bamyardgrass; [10]
  Plant response rating, Barnyardgrass: 3
velvetleaf; [1]
  Plant response rating, Velvetleaf: 0
velvetleaf; [2]
  Plant response rating, Velvetleaf: 2
velvetleaf; Preemergence, Rate 125 g/ha
  Velvetleaf plant response rating (0 to 10 scale): 4
velvetleaf; Preemergence, Rate 250 g/ha
  Velvetleaf plant response rating: 6
velvetleaf; Preemergence, Rate 500 g/ha
  Velvetleaf plant response rating: 7
velvetleaf; Rate 62 g/ha, Postemergence
  Velvetleaf plant response rating: 0
velvetleaf; [3]
  Plant response rating, Velvetleaf: 3
Purple nutsedge; [1]
  Plant response rating, Nutsedge: 0
Purple nutsedge; [2]
  Plant response rating, Nutsedge: 0
Purple nutsedge; Preemergence, Rate 125 g/ha
  Nutsedge plant response rating (0 to 10 scale): 0
Purple nutsedge; Preemergence, Rate 250 g/ha
  Nutsedge plant response rating: 0
Purple nutsedge; Preemergence, Rate 500 g/ha
  Nutsedge plant response rating: 0
Purple nutsedge; Rate 62 g/ha, Postemergence
  Nutsedge plant response rating: 0
Purple nutsedge; [3]
  Plant response rating, Nutsedge: 2
Duck salad; [8]
  Plant response rating, Ducksalad: 0
Duck salad; [9]
  Ducksalad plant response rating: 0
Duck salad; [10]
  Plant response rating, Ducksalad: 2
Smallflower flatsedge; [8]
  Plant response rating, S. Flatsedge: 7
Smallflower flatsedge; [9]
  S. Flatsedge plant response rating: 2
Smallflower flatsedge; [10]
  Plant response rating, S. Flatsedge: 7
Wild oat; [1]
  Plant response rating, Wild oats: 0
Wild oat; [2]
  Plant response rating, Wild oats: 8
Wild oat; Preemergence, Rate 125 g/ha
  Wild oats plant response rating (0 to 10 scale): 8
Wild oat; Preemergence, Rate 250 g/ha
  Wild oats plant response rating: 9
Wild oat; Preemergence, Rate 500 g/ha
  Wild oats plant response rating: 10
Wild oat; Rate 62 g/ha, Postemergence
  Wild oats plant response rating: 0
Wild oat; [3]
  Plant response rating, Wild oats: 7
bedstraw; [1]
  Plant response rating, Bedstraw: 0
bedstraw; [2]
  Plant response rating, Bedstraw: 0
bedstraw; Preemergence, Rate 125 g/ha
  Bedstraw plant response rating (0 to 10 scale): 0
bedstraw; [6]
  Bedstraw plant response rating: 0
bedstraw; [7]
  Plant response rating, Bedstraw: 2
bedstraw; [3]
  Plant response rating, Bedstraw: 4
